From ChEMBL document CHEMBL1136562, “Structure-activity relationships of substituted benzothiophene-anthranilamide factor Xa inhibitors” (Bioorg Med Chem Lett, 2003)

Experiments:
[1] = biological target: Coagulation factor X (Homo sapiens, UniProt P00742); assay: Inhibition constant against human factor Xa; conditions: read-out: Ki app
[2] = biological target: Prothrombin (Homo sapiens, UniProt P00734); assay: Inhibition constant against human thrombin; conditions: read-out: Ki app
[3] = biological target: Cationic trypsin (Bos taurus); assay: Inhibition constant against bovine trypsin

Sequence of Coagulation factor X (P00742 41-179 limits assumed): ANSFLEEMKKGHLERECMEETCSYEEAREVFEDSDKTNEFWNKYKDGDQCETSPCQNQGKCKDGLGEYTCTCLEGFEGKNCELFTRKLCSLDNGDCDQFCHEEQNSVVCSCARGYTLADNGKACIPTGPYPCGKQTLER
Sequence of Coagulation factor X (P00742 235-488 limits assumed): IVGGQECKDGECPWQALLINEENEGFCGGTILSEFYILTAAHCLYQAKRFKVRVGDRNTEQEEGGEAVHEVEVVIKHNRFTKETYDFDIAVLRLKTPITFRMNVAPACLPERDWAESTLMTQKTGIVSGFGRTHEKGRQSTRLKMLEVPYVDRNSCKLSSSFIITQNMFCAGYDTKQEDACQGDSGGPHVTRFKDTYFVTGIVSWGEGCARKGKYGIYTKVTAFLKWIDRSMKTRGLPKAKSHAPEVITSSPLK

| Ki [1] [µM] | Ki [2] [µM] | Ki app [3] [µM] | Structure (SMILES) |
| --- | --- | --- | --- |
| > 5 | > 5 | > 5 | CSc1ncc(Cl)c(C(=O)Nc2ccc(C)cc2C(=O)Nc2ccc(Cl)cc2)n1 |
| 0.0023 | > 5 | > 5 | Cc1ccc(NC(=O)c2sc3ccccc3c2Cl)c(C(=O)Nc2ccc(Cl)cn2)c1 |
| 0.39 | > 5 | > 5 | Cc1ccc(NC(=O)c2sccc2Cl)c(C(=O)Nc2ccc(F)cc2)c1 |
| 0.21 | > 5 | – | Cc1ccc(NC(=O)c2sc(C)nc2C)c(C(=O)Nc2ccc(Cl)cc2)c1 |
| 0.0072 | > 5 | > 5 | Cc1ccc(C(=O)Nc2ccc(Cl)cc2)c(NC(=O)c2sc3ccccc3c2Cl)c1 |
| 0.025 | > 5 | > 5 | Cc1ccc(NC(=O)c2sc3ccccc3c2C)c(C(=O)Nc2ccc(F)cc2)c1 |
| 0.00046 | > 5 | – | Cc1ccc(NC(=O)c2sc3ccccc3c2Cl)c(C(=O)Nc2ccc(Br)cc2)c1 |
| 0.054 | > 5 | – | COc1c(Br)csc1C(=O)Nc1ccc(C)cc1C(=O)Nc1ccc(Cl)cc1 |
| 0.011 | > 5 | > 5 | Cc1cc(NC(=O)c2sc3ccccc3c2Cl)c(C(=O)Nc2ccc(Cl)cc2)cc1Cl |
| 0.16 | > 5 | > 5 | COc1ccsc1C(=O)Nc1ccc(C)cc1C(=O)Nc1ccc(Cl)cc1 |
| 0.28 | > 5 | – | Cc1ccc(NC(=O)c2sc3ccccc3c2Cl)c(C(=O)Nc2ccc(N)cc2)c1 |
| 0.0071 | > 5 | > 5 | Cc1ccc(NC(=O)c2cc(C)ccc2NC(=O)c2sc3ccccc3c2Cl)cc1 |
| 0.0006 | > 5 | > 5 | O=C(Nc1ccc(Cl)cc1)c1cc(Cl)ccc1NC(=O)c1sc2ccccc2c1Cl |
| 4.4 | > 5 | – | Cc1ccc(NC(=O)c2sc3ccccc3c2O)c(C(=O)Nc2ccc(Cl)cc2)c1 |
| 0.005 | > 5 | – | O=C(Nc1ccc(Cl)cc1)c1cc(F)ccc1NC(=O)c1sc2ccccc2c1Cl |
| 0.0059 | > 5 | > 5 | COc1c(C(=O)Nc2ccc(C)cc2C(=O)Nc2ccc(Cl)cc2)sc2ccccc12 |
| 0.13 | > 5 | – | Cc1ccc(NC(=O)c2sccc2Cl)c(C(=O)Nc2ccc(Cl)cc2)c1 |
| 0.26 | > 5 | > 5 | Cc1ccc(NC(=O)c2sc3ccccc3c2Cl)c(C(=O)Nc2cccc(Cl)c2)c1 |
| 0.59 | > 5 | – | Cc1ccc(NC(=O)c2cc3ccccc3s2)c(C(=O)Nc2ccc(F)cc2)c1 |
| 0.016 | > 5 | > 5 | Nc1ccc(NC(=O)c2sc3ccccc3c2Cl)c(C(=O)Nc2ccc(Cl)cc2)c1 |
| > 5 | > 5 | > 5 | Cc1ccc(NC(=O)c2cccnc2C)c(C(=O)Nc2ccc(Cl)cc2)c1 |
| 0.96 | > 5 | > 5 | Cc1ccc(NC(=O)c2ccccc2Br)c(C(=O)Nc2ccc(Cl)cc2)c1 |
| 0.078 | > 5 | > 5 | Cc1ccc(NC(=O)c2ccc3ccccc3c2)c(C(=O)Nc2ccc(Cl)cc2)c1 |
| > 5 | > 5 | > 5 | CCOc1ccc(NC(=O)c2cc(C)ccc2NC(=O)c2sc3ccccc3c2Cl)cc1 |
| 0.014 | > 5 | > 5 | Cc1ccc(NC(=O)c2scc(S(C)(=O)=O)c2Cl)c(C(=O)Nc2ccc(Cl)cc2)c1 |
| – | > 5 | – | Cc1ccc(NC(=O)c2sc3ccccc3c2Cl)c(C(=O)Nc2ccc(F)cc2)c1 |
| 0.016 | > 5 | > 5 | COc1ccc(NC(=O)c2cc(C)ccc2NC(=O)c2sc3ccccc3c2Cl)cc1 |
| – | > 5 | – | Cc1ccc(NC(=O)c2sc3ccccc3c2Cl)c(C(=O)Nc2ccc(Cl)cc2)c1 |

Continued, compound first:

| Structure (SMILES) | Ki [1] [µM] | Ki [2] [µM] | Ki app [3] [µM] |
| --- | --- | --- | --- |
| O=C(Nc1ccc(Cl)cc1)c1cc(Cl)c(F)cc1NC(=O)c1sc2ccccc2c1Cl | 0.007 | > 5 | – |
| Cc1ccc(NC(=O)c2sc3ccccc3c2Cl)c(C(=O)Nc2ccc(C(F)(F)F)cc2)c1 | > 5 | > 5 | > 5 |
| COc1cc(Cl)cc(C(=O)Nc2ccc(Cl)cc2)c1NC(=O)c1sc2ccccc2c1Cl | 0.0022 | > 5 | > 5 |
| O=C(Nc1ccc(Cl)cc1)c1cccc(O)c1NC(=O)c1sc2ccccc2c1Cl | 0.018 | > 5 | – |
| O=C(Nc1cccc(Cl)c1C(=O)Nc1ccc(Cl)cc1)c1sc2ccccc2c1Cl | > 5 | > 5 | > 5 |
| O=C(Nc1ccc(Cl)cc1)c1ccc(Cl)cc1NC(=O)c1sc2ccccc2c1Cl | 0.026 | > 5 | – |
| O=C(Nc1ccc(Cl)cc1)c1cc(O)ccc1NC(=O)c1sc2ccccc2c1Cl | 0.073 | > 5 | > 5 |
| O=C(Nc1ccc(Cl)cc1)c1cc([N+](=O)[O-])ccc1NC(=O)c1sc2ccccc2c1Cl | > 0.5 | > 5 | – |
| CCOC(=O)COc1cccc(C(=O)Nc2ccc(Cl)cc2)c1NC(=O)c1sc2ccccc2c1Cl | 0.022 | > 5 | > 5 |
| Cc1ccc(NC(=O)c2sc3ccccc3c2Cl)c(C(=O)Nc2ccccn2)c1 | 0.03 | > 5 | > 5 |
| Cc1ccc(NC(=O)c2sc3ccccc3c2Cl)c(C(=O)Nc2ccc(CN)cc2)c1 | 1.4 | > 5 | > 5 |
| COC(=O)c1ccc(NC(=O)c2cc(C)ccc2NC(=O)c2sc3ccccc3c2Cl)cc1 | > 5 | > 5 | > 5 |
| Cc1ccc(NC(=O)c2sc3ccccc3c2Cl)c(C(=O)Nc2ccc(C#N)cc2)c1 | 0.15 | > 5 | – |
| O=C(Nc1ccc(Cl)cc1)c1ccc(C(F)(F)F)cc1NC(=O)c1sc2ccccc2c1Cl | 0.1 | > 5 | > 5 |
| O=C(Nc1ccc(Cl)cc1)c1ccc(F)cc1NC(=O)c1sc2ccccc2c1Cl | 0.015 | > 5 | – |
| O=C(Nc1ccc(Cl)cc1)c1ccccc1NC(=O)c1sc2ccccc2c1Cl | 0.007 | > 5 | > 5 |

| Structure (SMILES) | Ki [1] [µM] | Ki [2] [µM] | Ki app [3] [µM] |
| --- | --- | --- | --- |
| Cc1ccc(NC(=O)c2sc3ccccc3c2Cl)c(C(=O)Nc2ccc(C(=O)O)cc2)c1 | 4.7 | > 5 | > 5 |
| Cc1ccc(NC(=O)c2sc3ccccc3c2Cl)c(C(=O)Nc2cccnc2)c1 | 0.21 | > 5 | > 5 |
| O=C(Nc1ccc(Cl)cc1)c1cccc(Cl)c1NC(=O)c1sc2ccccc2c1Cl | 0.024 | > 5 | > 5 |
| O=C(Nc1ccc(Cl)cc1)c1cc(N2CCCC2)ccc1NC(=O)c1sc2ccccc2c1Cl | > 5 | > 5 | > 5 |
| Cc1ccc(NC(=O)c2sc3ccccc3c2Cl)c(C(=O)Nc2nccs2)c1 | > 5 | > 5 | > 5 |
| Cc1cc(Cl)cc(C(=O)Nc2ccc(Cl)cc2)c1NC(=O)c1sc2ccccc2c1Cl | 0.0018 | > 5 | – |
| COc1ccc(COc2ccc(NC(=O)c3sc4ccccc4c3Cl)c(C(=O)Nc3ccc(Cl)cc3)c2)cc1 | > 5 | > 5 | > 5 |
| O=C(Nc1ccc(Cl)cc1)c1cc(Cl)cc(O)c1NC(=O)c1sc2ccccc2c1Cl | 0.0037 | > 5 | – |
| COc1cccc(C(=O)Nc2ccc(Cl)cc2)c1NC(=O)c1sc2ccccc2c1Cl | 0.022 | > 5 | – |
| Cc1cccc(C(=O)Nc2ccc(Cl)cc2)c1NC(=O)c1sc2ccccc2c1Cl | 0.058 | > 5 | > 5 |
| Cc1ccc(NC(=O)c2sc3ccccc3c2Cl)c(C(=O)Nc2ccccc2)c1 | 0.019 | > 5 | > 5 |
| O=C(Nc1cccc(F)c1C(=O)Nc1ccc(Cl)cc1)c1sc2ccccc2c1Cl | 0.026 | > 5 | > 5 |
| Cc1cccc(NC(=O)c2sc3ccccc3c2Cl)c1C(=O)Nc1ccc(Cl)cc1 | > 5 | > 5 | > 5 |
| CN1CCN(c2ccc(NC(=O)c3sc4ccccc4c3Cl)c(C(=O)Nc3ccc(Cl)cc3)c2)CC1 | 0.47 | > 5 | > 5 |
| Cc1ccc(NC(=O)c2sc3ccccc3c2Cl)c(C(=O)Nc2ccccc2Cl)c1 | > 5 | > 5 | – |
